Test results: patent US20170224819A1, “Therapeutic Combinations of a BTK Inhibitor, a PI3K Inhibitor, a JAK-2 Inhibitor, and/or a CDK 4/6 Inhibitor” (Acerta Pharma B.V., priority 2014, published 2017)

Assays:
[1] = Brain PK experiments (brain and CSF versus plasma); format: in vivo, Sprague-Dawley rats; conditions: rats, 5 or 30 mg/kg/day
From the text: Two vehicle treated rats were sacrificed on each sampling day for comparison.

[2] = Glutathione binding and depletion in vitro; format: in vitro ADME
CYP3A4 = CYP3A4 (Homo sapiens, UniProt P08684); test: In vitro CYP metabolism and CYP interaction studies; format: in vitro ADME
Sequence of CYP3A4 (P08684 whole entry): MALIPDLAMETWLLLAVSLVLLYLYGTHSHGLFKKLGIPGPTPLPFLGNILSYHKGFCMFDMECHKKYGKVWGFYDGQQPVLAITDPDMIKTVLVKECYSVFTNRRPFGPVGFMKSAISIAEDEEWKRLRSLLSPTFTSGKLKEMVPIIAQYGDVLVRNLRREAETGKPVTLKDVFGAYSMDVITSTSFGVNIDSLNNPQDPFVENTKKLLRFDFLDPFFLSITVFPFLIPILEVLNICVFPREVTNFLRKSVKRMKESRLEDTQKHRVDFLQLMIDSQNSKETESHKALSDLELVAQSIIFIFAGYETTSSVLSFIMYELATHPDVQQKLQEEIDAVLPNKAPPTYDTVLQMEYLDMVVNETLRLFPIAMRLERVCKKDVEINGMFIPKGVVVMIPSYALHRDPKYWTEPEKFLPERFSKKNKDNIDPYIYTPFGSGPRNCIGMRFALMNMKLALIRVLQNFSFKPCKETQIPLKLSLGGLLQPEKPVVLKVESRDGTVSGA

EGFR = EGFR (Homo sapiens, UniProt P00533); test: EGF-induced EGFR phosphorylation in A431 cells (phosphoflow); conditions: 10 μM; A431 human epidermoid cancer cell line
Sequence of EGFR (P00533 25-1210): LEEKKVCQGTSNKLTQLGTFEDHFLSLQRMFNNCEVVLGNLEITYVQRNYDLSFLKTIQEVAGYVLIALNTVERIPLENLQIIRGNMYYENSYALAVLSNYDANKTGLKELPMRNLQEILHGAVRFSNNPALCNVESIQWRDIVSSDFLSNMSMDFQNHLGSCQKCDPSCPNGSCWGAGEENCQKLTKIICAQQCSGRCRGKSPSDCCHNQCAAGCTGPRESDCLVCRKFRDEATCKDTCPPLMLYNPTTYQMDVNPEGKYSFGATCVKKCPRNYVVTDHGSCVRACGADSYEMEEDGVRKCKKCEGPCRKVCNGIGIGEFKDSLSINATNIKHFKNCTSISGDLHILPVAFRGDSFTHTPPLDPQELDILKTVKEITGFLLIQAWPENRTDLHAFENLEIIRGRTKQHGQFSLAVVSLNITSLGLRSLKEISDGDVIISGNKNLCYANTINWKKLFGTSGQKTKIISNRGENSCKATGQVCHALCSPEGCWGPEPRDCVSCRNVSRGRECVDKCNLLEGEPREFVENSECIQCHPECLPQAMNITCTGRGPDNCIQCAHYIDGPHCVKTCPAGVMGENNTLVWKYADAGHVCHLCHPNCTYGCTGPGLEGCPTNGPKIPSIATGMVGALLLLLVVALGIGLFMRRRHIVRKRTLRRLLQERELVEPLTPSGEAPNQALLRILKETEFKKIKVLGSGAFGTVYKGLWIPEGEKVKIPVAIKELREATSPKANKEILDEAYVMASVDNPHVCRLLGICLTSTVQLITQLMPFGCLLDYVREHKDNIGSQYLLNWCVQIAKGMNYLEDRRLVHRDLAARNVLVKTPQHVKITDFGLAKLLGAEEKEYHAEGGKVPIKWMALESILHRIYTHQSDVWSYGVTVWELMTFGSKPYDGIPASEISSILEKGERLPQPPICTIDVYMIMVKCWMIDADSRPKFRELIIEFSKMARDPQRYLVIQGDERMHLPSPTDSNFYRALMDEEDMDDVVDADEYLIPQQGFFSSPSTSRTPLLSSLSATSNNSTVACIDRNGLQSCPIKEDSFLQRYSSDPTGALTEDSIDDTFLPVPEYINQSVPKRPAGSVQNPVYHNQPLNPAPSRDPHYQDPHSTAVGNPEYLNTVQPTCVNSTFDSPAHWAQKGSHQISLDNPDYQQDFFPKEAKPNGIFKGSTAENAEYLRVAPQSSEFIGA

[3] = test system: spontaneous pancreatic tumors (KPC mice); test: KPC mouse model of advanced pancreatic cancer; format: in vivo; conditions: for Tumor volume, average: N=6
Method: The KPC mouse model recapitulates many of the molecular, histopathologic, and clinical features of human disease (Westphalen and Olive, Cancer J. 2012, 18, 502-510). Combination therapy with gemcitabine was also evaluated in this model. Mice were enrolled after identification of spontaneously appearing tumors in the pancreas that were >100 mm^3 (as assessed by high-resolution ultrasonography).

ID8 ovarian cancer = test: ID8 syngeneic orthotropic ovarian cancer murine model; format: in vivo, mice; conditions: 15 mg/kg/BID orally
From the text: Human ovarian cancer models, including the ID8 syngeneic orthotropic ovarian cancer model and other animal models, are described in Fong and Kakar, J. Ovarian Res. 2009, 2, 12; Greenaway et al., Gynecol. Oncol. 2008, 108, 385-94; Urzua et al., Tumour Biol. 2005, 26, 236-44; Janat-Amsbury et al., Anticancer Res. 2006, 26, 3223-28; Janat-Amsbury et al., Anticancer Res. 2006, 26, 2785-89. […] The results of the study are shown in FIG. 108, FIG. 109, FIG. 110, FIG. 111, FIG. 112, FIG. 113, FIG. 114, and FIG. 115.

NK cells = test: Antibody-dependent NK cell cytokine (IFN-γ) secretion, ELISA; format: cell-based, human; conditions: 1 μM, HER18 target cells
Method: Cytokine secretion was determined as follows. […] NK cells from healthy donors were enriched as described above and then added to the target cells and incubated for 4 hours at 37° C. Triplicate cultures were performed on NK cells from donors. After incubation, supernatants were harvested, centrifuged briefly, and then analyzed for interferon-γ using an enzyme-linked immunosorbent assay (ELISA) (R&D Systems, Minneapolis, Minn., USA).

[4] = test system: KPC derived mouse pancreatic cancer cells; test: KPC derived pancreatic cancer cells injected into the pancreas, Formula (XVIII) and/or gemcitabine; format: in vivo; conditions: 15 mg/kg/BID orally
Method: In this study, KPC derived mouse pancreatic cancer cells (KrasG12D; Trp53R172H; Pdxl-Cre) were injected into the pancreases.
Single cell suspensions from tumor samples. Mouse tumor tissue was collected and stored in PBS/0.1% soybean trypsin inhibitor prior to enzymatic dissociation. Samples were finely minced with a scissors and mouse tissue was transferred into DMEM containing 1.0 mg/ml collagenase IV (Gibco), 0.1% soybean trypsin inhibitor, and 50 U/ml DNase (Roche) and incubated at 37° C. for 30 minutes with constant stirring while human tissue was digested in 2.0 mg/ml collagenase IV, 1.0 mg/ml hyluronidase, 0.1% soybean trypsin inhibitor, and 50 U/ml DNase for 45 minutes. Suspensions were filtered through a 100 micron filter and washed with FACS buffer (PBS/0.5% BSA/2.0 mM EDTA) prior to staining. Two million total cells were stained with antibodies as indicated. Intracellular detection of FoxP3 was achieved following permeabilization with BD Perm Buffer III (BD Biosciences) and eBioscience Fix/Perm respectively. Following surface staining, samples were acquired on a BD Fortessa and analyzed using FlowJo (Treestar) software.

BTK = biological target: T1, BTK (Mus musculus, UniProt P35991); test: Molecular probe assay of irreversible BTK occupancy in MDSCs of tumor bearing PDA mice; format: in vivo; conditions: 15 mg/kg BID, Day 8, 4 hours post dose (N=5)
T1 construct: MDSCs were purified from tumor bearing PDA mice; endogenous in cells; host or cells: granulocytic and monocytic MDSCs from tumour-bearing PDA mice
T1 sequence (P35991 whole entry): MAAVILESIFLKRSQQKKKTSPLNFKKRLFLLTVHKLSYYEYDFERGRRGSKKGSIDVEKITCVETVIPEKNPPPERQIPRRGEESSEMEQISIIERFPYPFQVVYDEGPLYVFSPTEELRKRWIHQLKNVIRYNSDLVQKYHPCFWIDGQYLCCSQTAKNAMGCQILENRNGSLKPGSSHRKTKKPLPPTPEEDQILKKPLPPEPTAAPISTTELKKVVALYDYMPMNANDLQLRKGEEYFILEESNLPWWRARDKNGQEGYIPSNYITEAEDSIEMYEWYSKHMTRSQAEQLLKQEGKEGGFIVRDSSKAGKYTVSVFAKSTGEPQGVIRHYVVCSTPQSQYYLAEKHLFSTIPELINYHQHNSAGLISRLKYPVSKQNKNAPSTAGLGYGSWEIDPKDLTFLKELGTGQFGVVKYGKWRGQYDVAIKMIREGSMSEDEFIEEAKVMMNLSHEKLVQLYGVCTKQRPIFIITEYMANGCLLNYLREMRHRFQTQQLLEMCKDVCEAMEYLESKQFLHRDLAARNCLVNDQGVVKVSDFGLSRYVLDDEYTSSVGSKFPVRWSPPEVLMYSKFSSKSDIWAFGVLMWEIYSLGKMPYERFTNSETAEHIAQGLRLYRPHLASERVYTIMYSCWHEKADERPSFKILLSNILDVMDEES
From the text: A molecular probe assay was used to calculate the percent irreversible occupancy of total BTK.

Compound: CC#CC(=O)N1CCC[C@H]1c1nc(-c2ccc(C(=O)Nc3ccccn3)cc2)c2c(N)nccn12 [Formula (XVIII), (S)-4-(8-amino-3-(1-(but-2-ynoyl)pyrrolidin-2-yl)imidazo[1,5-a]pyrazin-1-yl)-N-(pyridin-2-yl)benzamide]
- Levels in brain and CSF samples [1]: low but detectable levels
- Glutathione binding and depletion [2]: binds to glutathione but does not deplete glutathione in vitro
- CYP catalyzed loss of parent drug (CYP3A4; in vitro): metabolized by CYP3A4
- CYP drug-drug interaction potential (CYP3A4; nonclinical CYP interaction studies): very unlikely to cause clinical drug-drug interactions
- Inhibition of in vitro EGFR phosphorylation (EGFR): no inhibition
- CD8+ cells in tumor tissues ([3]; 15 mg/kg BID orally): significant increase in CD8^+ cells
- Immunosuppressive TAMs, MDSCs and Tregs in tumor tissues ([3]; 15 mg/kg BID orally): significantly reduced
- Pancreatic cancer growth and animal survival ([3]; 15 mg/kg BID orally): substantially slowed pancreatic cancer growth and increased animal survival
- Survival ([3]; day 14): 6/6
- Survival ([3]; day 28): 5/6
- Tumor volume, average ([3]; day 28, 15 mg/kg BID orally): 272 mm^3
- Tumor volume, average ([3]; predose, 15 mg/kg BID orally): 165 mm^3
- CD8+ T cells (ID8 ovarian cancer): increase in CD8^+ T cells
- ID8 ovarian cancer growth (ID8 ovarian cancer): impairs ID8 ovarian cancer growth
- Immunosuppressive B cells (ID8 ovarian cancer): significant reduction in immunosuppressive B cells
- Immunosuppressive tumor-associated lymphocytes (ID8 ovarian cancer): significant reduction in immunosuppressive tumor-associated lymphocytes
- Tumor associated Tregs (ID8 ovarian cancer): significant reduction in immunosuppressive tumor associated Tregs
- Inhibition of trastuzumab-stimulated NK cell cytokine release (NK cells): no inhibitory effect
- Tumor burden [4]: reduction in tumor burden
- Irreversible BTK occupancy in granulocytic and monocytic MDSCs (BTK): Complete BTK occupancy
